Laboratory results reported in ChEMBL document CHEMBL4118137, “Design, synthesis and antineoplastic activity of novel hybrids of podophyllotoxin and indirubin against human leukaemia cancer cells as multifunctional anti-MDR agents” (Bioorg Med Chem Lett, 2018).
pIC50: −log10 of the molar value. Activity calls are given as the source filed them. The rule behind the calls is not given here.

Key:
K562/VCR [1] = experiment: Antiproliferative activity against human K562/VCR cells after 72 hrs by CCK8 assay; format: functional, cell-based
K562 = experiment: Antiproliferative activity against human K562 cells after 72 hrs by CCK8 assay; format: functional, cell-based; conditions: K562, 72 h
[2] = Resistance factor, ratio of IC50 for human K562/VCR cells to IC50 for human K562 cells; format: functional
K562/VCR [3] = experiment: Cell cycle arrest in human K562/VCR cells assessed as accumulation at G1 phase at 0.05 uM after 48 hrs by propidium iodide staining-based flow cytometric method (reference value: 46.20%); format: functional
Homo sapiens = organism: Homo sapiens; experiment: Inhibition of alpha-tubulin polymerization in human K562/VCR cells assessed as disruption of microtubule organization at 0.05 uM after 24 hrs by DAPI staining-based immunofluorescence assay; format: cell-based
K562/VCR [4] = experiment: Induction of reactive oxygen species formation in human K562/VCR cells at 0.05 uM after 24 hrs by DCFH-DA staining-based flow cytometric method (reference value: 0.41%); format: functional
K562/VCR [5] = experiment: Induction of apoptosis in human K562/VCR cells assessed as late apoptotic cells at 0.05 uM after 48 hrs by annexin-V-FITC/propidium iodide staining-based flow cytometric method (reference value: 1.90%); format: functional
K562/VCR [6] = experiment: Induction of apoptosis in human K562/VCR cells assessed as early apoptotic cells at 0.05 uM after 48 hrs by annexin-V-FITC/propidium iodide staining-based flow cytometric method (reference value: 6.90%); format: functional
K562/VCR [7] = experiment: Induction of apoptosis in human K562/VCR cells assessed as viable cells at 0.05 uM after 48 hrs by annexin-V-FITC/propidium iodide staining-based flow cytometric method (reference value: 91.05%); format: functional; conditions: read-out: Activity
K562/VCR [8] = experiment: Induction of autophagy in human K562/VCR cells assessed as upregulation of beclin-1 expression at 0.05 uM after 48 hrs by Western blot method relative to beta-actin; format: functional
K562/VCR [9] = experiment: Induction of apoptosis in human K562/VCR cells assessed as upregulation of cleaved PARP expression at 0.05 uM after 48 hrs by Western blot method relative to beta-actin; format: functional
K562/VCR [10] = experiment: Cell cycle arrest in human K562/VCR cells assessed as accumulation at G2 phase at 0.05 uM after 48 hrs by propidium iodide staining-based flow cytometric method (reference value: 7.78%); format: functional
K562/VCR [11] = experiment: Cell cycle arrest in human K562/VCR cells assessed as accumulation at S phase at 0.05 uM after 48 hrs by propidium iodide staining-based flow cytometric method (reference value: 46.02%); format: functional
K562/VCR [12] = experiment: Reduction in mitochondrial membrane potential in human K562/VCR cells at 0.1 uM after 48 hrs by JC1 probe-based flow cytometric method (reference value: 2.65%); format: functional; design: scale not given: the % may be the effect or the level left
K562/VCR [13] = experiment: Induction of apoptosis in human K562/VCR cells assessed as downregulation of CDK1 expression at 0.05 uM after 48 hrs by Western blot method relative to beta-actin; format: functional
K562/VCR [14] = experiment: Induction of autophagy in human K562/VCR cells assessed as upregulation of LC3-2 expression at 0.05 uM after 48 hrs by Western blot method relative to beta-actin; format: functional
K562/VCR [15] = experiment: Induction of apoptosis in human K562/VCR cells assessed as necrotic cells at 0.05 uM after 48 hrs by annexin-V-FITC/propidium iodide staining-based flow cytometric method (reference value: 0.15%); format: functional
[16] = target: RAC-alpha serine/threonine-protein kinase (Homo sapiens) (UniProt P31749); experiment: Inhibition of AKT phosphorylation in human K562/VCR cells at 0.05 uM after 48 hrs by Western blot method relative to beta-actin; format: cell-based
K562/VCR [17] = experiment: Downregulation of P-gp expression in human K562/VCR cells at 0.05 uM after 48 hrs by Western blot method relative to beta-actin; format: functional
K562/VCR [18] = experiment: Downregulation of MRP-1 expression in human K562/VCR cells at 0.05 uM after 48 hrs by Western blot method relative to beta-actin; format: functional
[19] = target: c-Jun N-terminal kinase, JNK (Homo sapiens) (UniProt P45983+P53779+P45984); experiment: Induction of JNK phosphorylation in human K562/VCR cells at 0.05 uM after 48 hrs by Western blot method relative to beta-actin; format: cell-based
K562/VCR [20] = experiment: Induction of apoptosis in human K562/VCR cells assessed as downregulation of CDK2 expression at 0.05 uM after 48 hrs by Western blot method relative to beta-actin; format: functional

Chain of RAC-alpha serine/threonine-protein kinase (Homo sapiens) (P31749 whole entry): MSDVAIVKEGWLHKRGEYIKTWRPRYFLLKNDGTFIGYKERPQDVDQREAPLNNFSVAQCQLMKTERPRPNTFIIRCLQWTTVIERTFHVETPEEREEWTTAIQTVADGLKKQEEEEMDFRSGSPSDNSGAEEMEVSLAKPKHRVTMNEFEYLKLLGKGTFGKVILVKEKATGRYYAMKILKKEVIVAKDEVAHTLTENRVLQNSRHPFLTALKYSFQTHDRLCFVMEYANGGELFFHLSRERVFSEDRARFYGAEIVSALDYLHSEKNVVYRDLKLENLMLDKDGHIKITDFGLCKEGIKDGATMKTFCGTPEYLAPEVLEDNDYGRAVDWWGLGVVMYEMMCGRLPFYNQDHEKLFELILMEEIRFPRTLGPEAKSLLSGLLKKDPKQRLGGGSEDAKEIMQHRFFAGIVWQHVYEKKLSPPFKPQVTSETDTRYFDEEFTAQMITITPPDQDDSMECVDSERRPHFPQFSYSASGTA

In the case of `O=C1Nc2ccccc2/C1=C1/Nc2ccccc2C1=O` [INDIRUBIN], the pIC50 (K562/VCR [1]) was less than 4.00 and the pIC50 (K562) was less than 4.00.
In the case of `COc1cc([C@@H]2c3cc4c(cc3[C@H](OC(=O)CCCN3C(=O)/C(=C5\Nc6ccccc6C5=O)c5ccccc53)[C@H]3COC(=O)[C@H]23)OCO4)cc(OC)c1OC`, the “Ratio IC50” value [2] was 0.97, the pIC50 (K562/VCR [1]) was 5.76 and the pIC50 (K562) was 5.75.
In the case of `CC[C@]1(O)C[C@H]2CN(CCc3c([nH]c4ccccc34)[C@@](C(=O)OC)(c3cc4c(cc3OC)N(C=O)[C@H]3[C@@](O)(C(=O)OC)[C@H](OC(C)=O)[C@]5(CC)C=CCN6CC[C@]43[C@@H]65)C2)C1` [VINCRISTINE], the “Ratio IC50” value [2] was 26.61, the pIC50 (K562/VCR [1]) was 5.32 and the pIC50 (K562) was 6.75.
For `COc1cc([C@@H]2c3cc4c(cc3[C@H](OC(=O)CCCCCN3C(=O)/C(=C5\Nc6ccccc6C5=O)c5ccccc53)[C@H]3COC(=O)[C@H]23)OCO4)cc(OC)c1OC`, the “Ratio IC50” value [2] was 5.02, the pIC50 (K562/VCR [1]) was 4.07 and the pIC50 (K562) was 4.77.
In the case of `COc1cc([C@@H]2c3cc4c(cc3[C@H](O)[C@H]3COC(=O)[C@H]23)OCO4)cc(OC)c1OC` [PODOFILOX], the Activity (K562/VCR [3]) was 17.81%, the inhibition (Homo sapiens) was “Active” and the Activity (K562/VCR [4]) was 45.54%. For the same compound, the “Ratio IC50” value [2] was 2, the pIC50 (K562/VCR [1]) was 7.30 and the Activity (K562/VCR [5]) was 23.21%. For the same compound, the Activity (K562/VCR [6]) was 28.1%, the viability at 0.05 µM (K562/VCR [7]) was 48.6% and the “fold change (FC)” value (K562/VCR [8]) was 0.78. For the same compound, the “fold change (FC)” value (K562/VCR [9]) was 0.61, the Activity (K562/VCR [10]) was 59.28% and the Activity (K562/VCR [11]) was 22.9%. For the same compound, the pIC50 (K562) was 7.60, the Activity (K562/VCR [12]) was 52.5% and the “fold change (FC)” value (K562/VCR [13]) was 0.27. For the same compound, the “fold change (FC)” value (K562/VCR [14]) was 0.65, the Activity (K562/VCR [15]) was 0.08% and the fold change (FC) [16] was 0.33. For the same compound, the “fold change (FC)” value (K562/VCR [17]) was 0.27, the “fold change (FC)” value (K562/VCR [18]) was 0.22 and the fold change (FC) [19] was 1.04. For the same compound, the “fold change (FC)” value (K562/VCR [20]) was 0.37.
